Measurements: patent publication EP2265632B1, “CD4-RELATED POLYPEPTIDES AND METHODS OF USE” (priority 2008, dated 2009)

Key:
[1] = Peptide analyses: oxidation state by discontinuous Tris/Tricine PAGE with densitometry; assay type: physicochemical; settings: for peptide existing as monomers: densitometric analysis; for peptide existing as monomers / oxidation state of the peptide: no reducing agent; for oxidation state of the peptide: reconstituted in PBS (pH 7.4), Tris/Tricine PAGE
Description: Peptide analyses. Synthetic 7-mer peptides Hel-S (RRSLWDQ, SEQ ID NO:10), Hel-Cs (DLRQCWR, SEQ ID NO:27) and Hel-C (RRCLWDQ, SEQ ID NO:2) were analysed by discontinuous PAGE according to the method of Schagger and von Zagau with modifications. Briefly, 2.5 µg of each lyophilized peptide reconstituted in pure H2O was mixed with a reducing agent-free loading buffer (0.1 M Tris, 20% glycerol, 8% SDS and 0.02% Coomassie blue G-250), incubated at 80°C for 3 minutes and loaded onto a 17.5% Tris/Tricine gel. Samples were resolved at 20 mAper gel until stacked (1-2 hours) and at 35 mA for 16 hours through the resolving gel. The gel was fixed by incubation in a 5% glutaraldehyde solution for 1 hour and then stained with Coomassie Blue-R250. Peptide monomer/dimer ratios were calculated by densitometry using Quantity One® software (BioRad, Hercules, CA (USA)). To evaluate the redox states of cysteine-containing peptides further, reduced Glutathione (GSH) (Sigma, UK), β-mercaptoethanol and dithiothreitol (DTT) were included in the sample loading buffer at concentrations ranging from 0 to 400 mM, and the samples were resolved and analysed as described above.
Peptide Analyses. We analysed the oxidation states of the synthetic peptides Hel-S, Hel-Cs and Hel-C following reconstitution in PBS (pH 7.4) by high resolution Tris/Tricine PAGE (resolving buffer pH = 8.0). As expected, in aqueous solution at close to neutral pH, the wild-type CD4-mimetic peptide Hel-S consisted of a pure monomer of molecular weight equal to approximately 1 kDa (predicted Mw = 976 g/mol). […] The latter are evident as bands of approximately 2 kDa, which presumably result from intermolecular disulfide bond formation. […] We then treated Hel-C with the thiol-containing reducing compounds β-mercaptoethanol (β-ME) and 1,4-dithiothreitol (DTT) to determine relative effects on cysteine oxidation in this peptide.

recombinant gp120BaL [2] = assay: Electrophoretic mobility shift assay (EMSA) with [14C]-acetylated peptides, scintillation counting of excised gp120; assay type: binding, HIV-1; settings: for peptide associated with excised gp120: 5 µM gp120BaL, 500 µM radiolabeled peptide, no reducing agent
Description: Peptide N-terminal [^14C]-Acetylation. Hel-S, Hel-Cs and Hel-C were radioactively labeled by N-terminal acetylation according to the method of Fraenkel-Conrat and Colloms with modifications. Briefly, peptides were reconstituted in an ice cold saturated solution of sodium acetate (> 3 M) to a concentration of 5 mM. [^14C]-Acetic anhydride (specific activity 116 mCi/mmol, Amersham Biosciences, UK) was then added to 100 µl of the reconstituted peptide solution in two 1 µl installments over 15 minutes, and the labeling reactions were incubated for 2 hours on ice. After addition of the final acetic anhydride installment, the reaction concentrations of both peptide and acetic anhydride were 5 mM, and the samples contained 1% toluene and 500 nCi/µl of [^14C]. An equal volume (100 µl) of ice cold PBS (pH 7.4) was then added to each reaction. For buffer exchange and removal of unincorporated radiolabel, the [^14C]-labeled peptides were purified chromatographically using Sephadex G-10 spin columns (Sigma, UK) equilibrated in PBS (pH 7.4). The concentration of the purified labeled peptides was determined by measuring A280, and the labeling efficiencies were analysed by discontinuous PAGE and fluorescence autoradiography, as well as by liquid scintillation counting using Packard Tri-Carb 2200 Liquid Scintillation Analyzer. Labeled peptides were stored in 50 µl aliquots at -80°C.
Electrophoretic Mobility Shift Assay (EMSA). Peptide-gp120 binding reactions were set up in 50 µl and contained 5 µM of pure recombinant gp120BaL and 500 µM of radio labeled Hel-S, Hel-Cs or Hel-C in PBS (pH 7.4). Reactions were incubated at 25°C for 3 hours and then stopped by the addition of an equal volume (50 µl) of either reducing agent-free loading buffer (0.1 M Tris, 20% glycerol, 8% SDS and 0.02% Coomassie blue G-250) or the same buffer containing 1, 10 or 100 mM of DTT. The samples were incubated at 80°C for 3 minutes before loading on a 20 × 20 cm 6 - 20% gradient Tris/Tricine polyacrylamide gel, and were resolved at a constant 40 V for 16 hours at room temperature. After electrophoresis, the gel was rinsed thoroughly with H2O and then stained lightly by incubation in a solution containing 10% methanol, 10% acetic acid and 0.02% Coomassie Blue R-250 for 10 minutes with gentle shaking. The gel was rinsed with H20, and bands corresponding to gp120 were excised using a gel punch and placed in 1.5 ml microcentrifuge tubes. The gp120-containing polyacrylamide slices were solubilized by incubation at 37°C for 16 hours in 400 µl of a solution containing 30% H2O2 and 0.03% ammonium hydroxide. The dissolved polyacrylamide samples were added to 2 ml of Aquasol-2 scintillation cocktail (Perkin Elmer, USA), and radioactive emissions expressed as counts per minute (cpm) measured by scintillation counting.
Hel-C Binds gp120 through disulfide linkage on gp120. We adopted two independent approaches to evaluate the potential of Hel-C to bind recombinant gp120. First, we used an electrophoretic mobility shift assay (EMSA) to detect gp120-bound peptides following resolution of peptide/protein mixtures on denaturing gradient polyacrylamide gels. This method also enabled us to determine whether the mechanism of binding could be related to the establishment of disulphide bonds between the peptides and target gp120, by measuring the proportion of bound peptide in response to increasing doses of DTT. For detection, we decided to incorporate as small a label as possible into the peptide, so that steric effects of the labeling procedure would be minimal (such as would be the case with larger fluorescent/antigenic tags), and that the peptide would be able to adopt a secondary structure as close as possible to the R59-Q64 α-helix chain in CD4. We therefore labeled Hel-C and the control peptides Hel-S and Hel-Cs with [^14C]-acetic anhydride, which incorporated a single [^14C]-acetyl group on the peptide N-termini. […]

gp120BaL = assay: Epitope occlusion assay (ELISA): competition with anti-gp120 MAbs for immobilized gp120; assay type: binding, HIV-1; settings: for effect on binding of MAb 654-30D to gp120: CD4bs-directed MAb 654-30D 0.2 nM; for effect on binding of MAb 654-30D to gp120 / effect on binding of MAb b12 to gp120 / effect on binding of MAb 2G12 to gp120 / effect on binding of MAb B4a1 to gp120: 2dCD4 0 to 1 µM or peptides 0 to 1 mM; for effect on binding of MAb b12 to gp120: CD4bs-directed MAb b12 0.2 nM; for effect on binding of MAb 2G12 to gp120: CD4bs-independent MAb 2G12 0.2 nM; for effect on binding of MAb B4a1 to gp120: CD4bs-independent MAb F425 B4a1 (V3 loop) 0.2 nM
recombinant gp120BaL [3] = assay: Surface plasmon resonance (Biacore 3000) on immobilized gp120; assay type: binding, HIV-1
Description: Surface Plasmon Resonance. All surface Plasmon resonance (SPR) experiments were performed on a BIA3000 optical biosensor (Biacore Inc., Uppsala, Sweden). Recombinant gp120BaL was immobilized on CM5 sensor chips by amine coupling according to the manufacturer's instructions. Briefly, a solution of 0.2 M EDC and 0.05 M NHS was used to activate carboxyl groups on the sensor surface at a flow rate of 5 µL/min for 10 minutes. Recombinant gp120BaL, dissolved in 100 mM sodium acetate buffer (pH 5.5) to a final concentration of 0.05 µM, was passed over the sensor chip surface at a flow rate of 5 µL/min until an immobilization level of 5000 RU was achieved. Excess carboxyl groups were capped by injection of 1 M ethanolamine (pH 8.0) at a flow rate of 5 µL/min for 5 minutes. Unbound ligand was removed by injecting 10 mM glycine (pH 2.5) at a flow rate of 5 µL/min for 2 minutes. In all experiments, the neighbouring flow cell was treated as mentioned above without the immobilization of gp120BaL, and this served as a reference surface. Prior to all experiments, the functionalities of the gp120 surfaces were tested by binding sCD4 at 500 nM in HEPES-buffered saline supplemented with 0.15 M NaCl (HBS-N, pH7.4). Analyte solutions were prepared in HBS-N at least 30 minutes prior to injection. All binding experiments were performed in duplicate at 25°C. For peptide binding analyses, increasing concentrations of peptide (from 0 to 500 µM) were passed over the surface at a flow rate of 5 µL/min, with a 5 minute association phase and a 6 minute dissociation phase. Surfaces were regenerated with a 20 mM sodium hydroxide (NaOH) solution between consecutive peptide analyses. The integrity of the surfaces was tested after each regeneration for sCD4 binding. Buffer injections and control surface binding were subtracted for all reported data.
Recombinant gp120BaL was immobilized on CM5 sensorchips and exposed to increasing concentrations of Hel-S, Hel-Cs or Hel-C.
The reasons for the slight difference are likely to be related to the different target gp120s used in these studies. […] Our data thus fit to a direct binding model consistent with 1:1 stoichiometry, and closely match previously published results.

Row | Substance | peptide existing as monomers [1] | oxidation state of the peptide [1] | peptide associated with excised gp120 (recombinant gp120BaL [2]) | effect on binding of MAb 654-30D to gp120 (gp120BaL) | effect on binding of MAb b12 to gp120 (gp120BaL) | effect on binding of MAb 2G12 to gp120 (gp120BaL) | effect on binding of MAb B4a1 to gp120 (gp120BaL) | also measured
1 | DLRQCWR [Hel-Cs] | less than 10% | mixture of monomers and dimers | small amount | did not compete | did not compete | did not compete | did not compete | effect on binding of MAb b12 to gp120 (gp120BaL; listed as scrambled): does not
2 | RINNIPWSEAMM [12p1, reference compound] | – | – | – | – | – | – | – | calculated Rmax (recombinant gp120BaL [3]; 5000 RU gp120BaL surface): approximately 67 RU; amount bound (recombinant gp120BaL [3]; just over 100 µM peptide, 5000 RU gp120 BaL surface): approximately 45 RU
3 | RRSLWDQ [Hel-S] | – | pure monomer | no detectable | did not compete | did not compete | did not compete | did not compete | effect on binding of MAb b12 to gp120 (gp120BaL; listed as native): does not
4 | RRCLWDQ [Hel-C, linear CD4-mimetic 7-mer peptide, R58 to Q64 of mature CD4 with S60C mutation] | less than 10% | mixture of monomers and dimers | significant quantity | dose-dependent inhibitory effect | dose-dependent inhibitory effect | did not compete | did not compete | proportion of Hel-C monomer ([1]; DTT at 10 mM): 50%; effect of DTT on cysteine oxidation ([1]; DTT at 200 mM): completely abolished the ability of the peptide to oxidize; effect of β-ME on cysteine oxidation ([1]; β-ME at 200 mM): unable to monomerize the peptide completely; amount of bound peptide relative to the amount bound in the absence of any reducing compound (recombinant gp120BaL [2]; 100 mM DTT): 10%; mode of binding to gp120 (EMSA) (recombinant gp120BaL [2]; C14-radioactively labeled peptide, denaturing gels, absence and presence of reducing agents): binds covalently; amount of Hel-C bound to gp120 (recombinant gp120BaL [2]; increasing amounts of DTT added): decreased; mode of binding to gp120 (SPR binding kinetics) (recombinant gp120BaL [3]; both monomeric and trimeric gp120 proteins): binds covalently; binding to recombinant gp120 (recombinant gp120BaL [3]; conclusion from EMSA and SPR collectively): able to bind recombinant gp120; effect on binding of MAb b12 to gp120 (gp120BaL; listed as S85C): appear to block; relief of Hel-C-mediated inhibition of b12-gp120 binding (gp120BaL; peptide pre-treated with 20 mM DTT): complete; relief of Hel-C-mediated inhibition of b12-gp120 binding (gp120BaL; peptide pre-treated with 20 mM β-mercaptoethanol): only partially rescued b12 binding; effect of reducing compounds on the amount of 2G12 bound in the presence or absence of peptide (gp120BaL; peptide pre-treated with 20 mM β-mercaptoethanol or DTT): no effect
